Results: ChEMBL document CHEMBL3244329, “Nicotinamide adenine dinucleotide phosphate-decanaldehyde adduct as an inhibitor of beef brain NADP-linked aldehyde reductase” (J Med Chem, 1979)

These molecules were tested against Aldo-keto reductase family 1 member A1 (Bos taurus, UniProt Q3ZCJ2) (assay: Inhibition of beef brain NADP-dependent aldehyde reductase using p-nitrobenzaldehyde by competitive inhibition assay).
Aldo-keto reductase family 1 member A1, sequence (Q3ZCJ2 2-325 limits assumed): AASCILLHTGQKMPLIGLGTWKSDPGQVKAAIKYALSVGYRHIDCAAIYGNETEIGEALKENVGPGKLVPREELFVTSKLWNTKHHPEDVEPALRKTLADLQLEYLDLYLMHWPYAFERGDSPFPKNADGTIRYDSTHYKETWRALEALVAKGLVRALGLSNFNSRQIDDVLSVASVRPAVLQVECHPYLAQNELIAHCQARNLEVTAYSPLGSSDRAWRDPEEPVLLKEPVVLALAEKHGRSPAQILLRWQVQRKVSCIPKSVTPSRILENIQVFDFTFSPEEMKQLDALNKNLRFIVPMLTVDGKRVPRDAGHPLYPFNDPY

Row | Structure (SMILES) | Ki
1 | Nc1ncnc2c1ncn2[C@@H]1O[C@H](COP(=O)(O)OP(=O)(O)O)[C@@H](OP(=O)(O)OC[C@H]2O[C@@H](N3C=C[C@@H]4C(=C3)C(=O)NC(O)C4Cc3ccccc3)[C@H](O)[C@@H]2O)[C@H]1O (some centres undefined) | 7 µM
2 | CCC1C(O)NC(=O)C2=CN([C@@H]3O[C@H](COP(=O)(O)O[C@H]4[C@@H](O)[C@H](n5cnc6c(N)ncnc65)O[C@@H]4COP(=O)(O)OP(=O)(O)O)[C@@H](O)[C@H]3O)C=C[C@H]21 (some centres undefined) | 13 µM
3 | Nc1ncnc2c1ncn2[C@@H]1O[C@H](COP(=O)(O)OP(=O)(O)O)[C@@H](OP(=O)(O)OC[C@H]2O[C@@H](N3C=C[C@@H]4C(=C3)C(=O)NC(O)C4c3ccccc3)[C@H](O)[C@@H]2O)[C@H]1O (some centres undefined) | 5.1 µM
4 | CCCCCCCCC1C(O)NC(=O)C2=CN([C@@H]3O[C@H](COP(=O)(O)O[C@H]4[C@@H](O)[C@H](n5cnc6c(N)ncnc65)O[C@@H]4COP(=O)(O)OP(=O)(O)O)[C@@H](O)[C@H]3O)C=C[C@H]21 (some centres undefined) | 2.3 µM
